The values that follow come from US20250152616A1, “COMPOSITIONS FOR AND METHODS OF TREATING, PREVENTING, AND/OR MITIGATING PAIN” (Duke University, priority 2022, published 2025).

The subject of one data set is fractured tibiae. Briefly: MicroCT of fractured tibiae (fracture healing). The note with it: 21 days post-fracture. It counts as in vivo, mouse. As for the experimental part: In all experiments, 12-week-old to 16-week-old C57BL/6J male mice (Jackson Laboratory, Bar Harbor, ME) and Lepr-cre; tdTomato reporter mice were used. The average mouse weight was 25 grams and mice were housed in groups of four to five, and kept on a 12-hr light-dark cycle with lights off at 1800 hr. All animals had ad libitum access to chow (PMI LabDiet 5001) and water. Fracture surgeries were performed as previously described (Zeng Y, et al. (2020) Adv Mater. 32:e1906022). Animals were anesthetized by isoflurane and injected with 1 mg/kg buprenorphine SR-LAB (ZooPharm, Laramie, WY). Each mouse was then placed in a supine position with the right tibia disinfected. After skin incision and reflection, proximal to the right knee, a 0.7-mm pin was inserted from the tibial plateau through the medullary cavity to stabilize the tibia, and a cut was made at the tibial midshaft to induce a transverse fracture. Bupivacaine (0.5%; Hospira, Lake Forest, IL) at ˜1 mg/kg body weight was applied at the surgical site following wound closure using 2 reflex clips (5 mm). For animals treated with control and adenosine-loaded macroporous hydrogels, macroporous hydrogels measuring approximately 5 mm (length)×3 mm (width)×1 mm (thick) containing either 1.05±0.1 mg adenosine (ADO) or no adenosine (CTL) were implanted adjacent to the fractures immediately. […] The animals were treated with the macroporous hydrogels with or without adenosine immediately following the fracture. In the cohorts for weight bearing and open field activity measurements, 1 animal from the control group and 1 animal from the treatment group were euthanized due to shift of the inserted pin following fracture.
Tibiae were collected, fixed in 4% PFA at 4° C. for 1 day, and rinsed with PBS. The fixed samples were placed in 50-mL centrifuge tubes with styrofoam spacers and loaded into a microcomputed tomography (microCT) scanner (vivaCT 80, Scanco Medical, Wayne, PA). The samples were scanned at 55 keV at a pixel resolution of 10.4 μm. The reconstruction of the images was performed using microCT Evaluation Program V6.6 (Scanco Medical), followed by generation of radiographs and 3D models using microCT Ray V4.0 (Scanco Medical). Total volume (TV), bone volume (BV) per total volume (TV) (% BV/TV), and bone mineral density (BMD) was quantified using the phantom as a reference based on 100 contiguous slices.

A short description of data set [1]: Measurement of adenosine in plasma of fractured mice. In kind it is in vivo, mouse. The note with it: 3 days after implantation of adenosine-loaded biomaterial following tibial fracture. The protocol: Peripheral blood was collected and immediately incubated in ice cold stop solution at a 1:2 ratio (blood to stop solution) to inhibit degradation of adenosine (Feldman M D, et al. (1992) Clin Chem. 38:256-262). Stop solution comprised of 0.2 mM dipyridamole (Tocris, Minneapolis, MN), 5 μM erythro-9 (2-hydroxy-3-nonyl)-adenine (EHNA; Tocris), 62 μM Adenosine 5′-(α,β-methylene) diphosphate sodium salt (APCP), 5 mM EDTA, and 25 IU/mL heparin (Tocris) in PBS. The blood was centrifuged at 2000 rcf for 10 min at 4° C. to separate cells from plasma. Adenosine assay kit (Cell Biolabs, San Diego, CA, Cat #MET-5090) was used to measure adenosine levels from plasma according to manufacturer's protocol. Briefly, a reaction mixture comprised of fluorometric Probe, HRP, adenosine deaminase, purine nucleoside phosphorylase, xanthine oxidase, assay buffer and a control mix comprised of fluorometric Probe, HRP, purine nucleoside phosphorylase, xanthine oxidase, assay buffer were made and mixed with 50 μL of plasma for 15 min. at room temp. The relative fluorescence unit (RFU) was measured using a microplate reader with excitation at 570 nm and emission at 590 nm. Adenosine concentration was determined using a standard curve of known concentrations and subtracted for the background by using the values in control mix.

`Nc1ncnc2c1ncn2[C@@H]1O[C@H](CO)[C@@H](O)[C@H]1O` [adenosine]: in the data set with fractured tibiae, the “callus size (microCT)” value was “smaller calluses”, the “cortical bone bridging (microCT)” value is “improved bridging of cortical bone with less trabecular bone” and the “total volume (TV) of regenerating calluses vs control” value is “lower”. The “fracture healing (microCT images and radiographs)” value with fractured tibiae (local delivery) is listed as “accelerated”. Also, the “adenosine level in peripheral blood vs control biomaterials” value in data set [1] was “No significant increase”.
